Laboratory results reported in patent publication US11400063B2, “Early administration of low-dose colchicine after myocardial infarction” (INSTITUT DE CARDIOLOGIE DE MONTREAL, priority 2019, dated 2022).

System: patients recruited within 30 days after a myocardial infarction
Test: COLCOT safety and adverse events (safety population)
Assay type: in vivo, human
Description: All serious adverse events were recorded. The only other adverse events recorded were those that were considered to be related to the gastrointestinal system, events that were judged by the investigator to be related to colchicine or placebo, or laboratory abnormalities that had been judged by the investigator to be clinically significant.

[1] = safety population, listed as colchicine

COc1cc2c(c(OC)c1OC)-c1ccc(OC)c(=O)cc1[C@@H](NC(C)=O)CC2 [Colchicine, colchicine]
trial regimen discontinued, % of patients (at the end of the trial): 18.4% | incidence of septic shock (in contrast to canakinumab): did not increase | Anemia, number of patients (safety population): 14 number | Anemia, percent of patients (safety population): (0.6) percent | Any related adverse event, percent of patients (safety population): (16.0) percent | Any serious adverse event, number of patients (safety population): 383 number | Any serious adverse event, percent of patients (safety population): (16.4) percent | Cancer, number of patients (safety population): 43 number | Cancer, percent of patients (safety population): (1.8) percent | Diarrhea adverse event, number of patients (safety population): 225 number | Diarrhea adverse event, percent of patients (safety population): (9.7) percent | Flatulence adverse event, number of patients (safety population): 15 number | Flatulence adverse event, percent of patients (safety population): (0.6) percent | Gastrointestinal adverse event, number of patients (safety population): 408 number | Gastrointestinal adverse event, percent of patients (safety population): (17.5) percent | Gastrointestinal hemorrhage, number of patients (safety population): 7 number | Gastrointestinal hemorrhage, percent of patients (safety population): (0.3) percent | Gastrointestinal serious adverse event, number of patients (safety population): 46 number | Gastrointestinal serious adverse event, percent of patients (safety population): (2.0 ) percent | Hospitalization for heart failure, number of patients (safety population): 25 number | Hospitalization for heart failure, percent of patients (safety population): (1.1) percent | Infection serious adverse event, number of patients (safety population): 51 number | Infection serious adverse event, percent of patients (safety population): (2.2) percent | Leukopenia, number of patients (safety population): 2 number | Leukopenia, percent of patients (safety population): (0.1) percent | Nausea adverse event, number of patients (safety population): 43 number | Nausea adverse event, percent of patients (safety population): (1.8) percent | Pneumonia serious adverse event, number of patients (safety population): 21 number | Pneumonia serious adverse event, percent of patients (safety population): (0.9) percent | Septic shock serious adverse event, number of patients (safety population): 2 number | Septic shock serious adverse event, percent of patients (safety population): (0.1) percent | Thrombocytopenia, number of patients (safety population): 3 number | Thrombocytopenia, percent of patients (safety population): (0.1) percent | Any related adverse event, number of patients (safety population, N = 2330): 372 number | Any related adverse event, percent of patients [1]: 16.0% | Any serious adverse event, percent of patients [1]: 16.4% | Diarrhea adverse event, percent of patients [1]: 9.7% | Gastrointestinal adverse event, percent of patients [1]: 17.5% | Infection serious adverse event, percent of patients [1]: 2.2% | Nausea adverse event, percent of patients [1]: 1.8% | Pneumonia serious adverse event, percent of patients [1]: 0.9% | serious adverse event of myopathy linked to colchicine (statins used in 99% of trial participants): no serious adverse event
